Experimental data as given in US20230003716A1, “METHODS AND APPARATUSES FOR PATIENT-DERIVED MICROORGANOSPHERES” (Xilis, Inc., priority 2020, published 2023).
Like-named read-outs stand apart in the source and are kept apart here.

Assays:
[1] = test system: PDX240 cells (colorectal cancer patient derived xenograft); assay: drug response curves, traditional (bulk) organoids versus Micro-Organospheres, PDX240; format: cell-based, human; settings: cell viabilities after 3 days of treatment
From the text: In some variations, the Micro-Organospheres may be formed from cell lines grown as part of a Patient Derived Xenograft (PDX). For example, FIGS. 28A-28D illustrate Micro-Organospheres formed from cultured PDX240 cells. PDX240 cells are a Patient Derived Xenograft (PDX) tumor cell line (numbered 240 based on patient source) that were human tumors grown in immunodeficient mice (PDX) to form in vivo tumors. The xenograft tissue was extracted dissociated, and used to form Micro-Organospheres as described above. In this example a single cell was included in each Micro-Organospheres as it was formed. […] With progressive time in culture, at least some of the Micro-Organospheres show the cells dividing and forming structures.
(§1) Organoids were formed from Patient Derived Xenograft cells (including the PDX240 cells described above and a second PDX cell line, PDX19187) and were compared with Micro-Organospheres formed using the same cells. The organoids were formed using conventional techniques in which a large mass of […] in a well or dish was seeded with cells and cultured until growth was confirmed. Micro-Organospheres were generated from the traditional organoids.
(§2) Both traditional (“bulk”) organoids and the Micro-Organospheres were then treated with the same drugs (e.g., Oxaliplatin or SN38) and cell viabilities were measured after 3 days of treatment.

[2] = test system: PDX19187 cells (colorectal cancer); format: cell-based, human; settings: cell viabilities after 3 days of treatment
Protocol: as §1, §2

patient tumor = assay: actual response of the patient's tumor to drug treatment; format: in vivo, human; settings: for patient response to treatment: Example 3, treated with both Oxaliplatin and Irinotecan, after 6 months of treatment
[3] = test system: Patient-Derived Micro-Organospheres (tumor biopsy); assay: drug effect screen on Patient-Derived Micro-Organospheres from a patient tumor biopsy; format: cell-based, human; settings: for percent survival of the Micro-Organospheres in the presence of the drug: Example 3, FIGS. 23B-23C, predicts drug resistance
From the text: The Patient-Derived Micro-Organospheres described herein may be used in a variety of different assays, and in particular may be used to determine drug formulation effects, including toxicity, on normal and/or abnormal (e.g., cancerous) tissue. For example, drug screening may include applying Micro-Organospheres into all or some wells of multi-well (e.g., a 96-well) plate. Alternatively custom plates may be used (e.g., a 10,000 micro-well array may be formed of a 100×100 wells). The Micro-Organospheres (e.g., gel droplets) may be applied into, or in some variations onto the multiple microwell arrays and incubated with culture medium. The Micro-Organospheres may be cultured over the course of 3-5 days. In some variations, on day 5, the wells (e.g., micro-reactors) may then be dosed with drug compounds, e.g., based on a set of FDA-approved anticancer drugs, to examine the effects of the drug panel. For example, the drugs texted may be based on the National Cancer Institute (Division of Cancer Treatment and Diagnosis (11)) screen, consisting of 147 agents intended to enable cancer research, drug discovery and combination drug studies. On Day 7, the Micro-Organospheres may be imaged via standard fluorescent microscopy and ranked based on drug response.
In this example, the screening assay may be automated. This may enable repeatable and automated workflow, which may increase the number of drugs screened from a few to hundreds. FIGS. 17A-17E illustrate one example of this workflow. In FIG. 17A, a tumor biopsy is taken and a plurality (e.g., >10,000) Micro-Organospheres are formed as described above (in FIG. 17A the junction region forming the Micro-Organospheres is illustrated).
In a similar set of experiments, Micro-Organospheres were generated from biopsy material (FIG. 23A), and a drug effect screen was performed using the resulting Micro-Organospheres. […] Thus, the Micro-Organospheres correlated strongly with patient response to the standard of care drugs. […]

traditional cell line = assay: traditional (2D) tumor cell line drug assay; format: cell-based; settings: FIG. 22A; all dose ranges examined; predicts drug resistance
From the text: As mentioned above, the Patient-Derived Micro-Organospheres and methods of using them to screen for drug compositions may be used to accurately predict the response of a patient tumor to one or more drug therapies. […] For example, in FIG. 22A-22D, the Micro-Organospheres, but not a cell line, was able to correlate with patient response.

Row | SMILES | drug response curve (cell viability), bulk organoids compared with Micro-Organospheres [1] | patient response to treatment (patient tumor) | percent survival of the Micro-Organospheres in the presence of the drug [3] | also measured
1 | O=c1[nH]cc(F)c(=O)[nH]1 [5-FU, Fluorouracil] | comparable responses |  |  | 
2 | CCc1c2c(nc3ccc(O)cc13)-c1cc3c(c(=O)n1C2)COC(=O)[C@]3(O)CC [SN38, 7-Ethyl-10-hydroxy-camptothecin] | comparable responses |  |  | drug response curve (cell viability), bulk organoids compared with Micro-Organospheres [2]: comparable responses
3 | CCc1c2c(nc3ccc(OC(=O)N4CCC(N5CCCCC5)CC4)cc13)-c1cc3c(c(=O)n1C2)COC(=O)[C@]3(O)CC [Irinotecan] |  | no response | lack of effect | 
4 | O=C1[O][Pt]2([NH][C@@H]3CCCC[C@H]3[NH]2)[O]C1=O [Oxaliplatin] |  | no response | no change in the percent survival | tumor response of the patient to treatment (patient tumor; Example 2, FIGS. 22C (before) and 22D (post treatment)): responded to treatment; drug response curve (cell viability), bulk organoids compared with Micro-Organospheres ([2]; listed as Oxalipalatin): comparable response; drug effect on traditional cell line (traditional cell line): no effect; cell survival of tumor Micro-Organospheres ([3]; Example 2, FIG. 22B, predicts drug sensitivity): significant decreases in cell survival
